What was measured:
[1] = system: gRNA-TAF1 edited Purkinje cells; conditions: gRNA-TAF1 edited Purkinje cells in cerebellar slices
Protocol: (§1) Intracerebroventricular injections: Bilateral intracerebroventricular (ICV) injections were performed as previously described in Sprague-Dawley (SD) rat pups on postnatal day 3. Briefly, newborn SD rat puts were anesthetized by isoflurane. A 10 μl syringe (Hamilton Gastight Syringe, #1701) was used to pierce the skull (coordinates from bregma: −0.6 mm posterior, ±1.75 mm lateral/medial, and −2.5 mm ventral), and 2.5 μl of CRISPR lentivirus (gRNA-control or gRNA-TAF1) was injected into each cerebral ventricle without opening the scalp. Neonatal rat pups were kept with the dam until weaned.

cerebral cortex neurons = conditions: TAF1-edited animals
Protocol: (§2) After weaning, the rat pups were separated from the dams and maintained 4 per cage. Animals were divided into six groups. […] Rats were sacrificed at PD35. Animals were behaviorally assessed before being euthanized for histological and protein expression analysis. All biochemical, electrophysiology, and behavior experiments were performed in a blinded fashion. Animal protocols were approved by the Institutional Animal Care and Use Committee of the College of Medicine at the University of Arizona and conducted in accordance with the Guide for Care and Use of Laboratory Animals published by the National Institutes of Health.
as §1

cerebral cortex = conditions: TAF1 edited animals; SAK3 0.25 mg/kg p.o.
Protocol: as §2, §1

TAF1-edited animals = system: TAF1-edited animals
Protocol: as §2, §1

[2] = system: AKT (phosphorylated at Ser 473); conditions: cortex of TAF-1 edited animals; SAK3 0.25 mg/kg p.o.
Protocol: as §2, §1
(§3) Rats (n=6 animals per experimental condition) were perfused with saline, and 4% formaldehyde in phosphate buffer saline (PBS) at PD 35, and the brains were extracted and post-fixed in 4% paraformaldehyde for 8 hours at 4° C. Cerebral cortex sections were cut sagittally at 20 μm using a cryostat (Microm HM 505 E). After rinsing the sections in PBS for 5 min, the sections were incubated with a 0.1% H2O2 solution in PBS for 5 min, rinsed in PBS for 5 times for 5 min, and incubated for 30 min with 0.4% Triton X-100, rinsed in PBS and blocked with 8% goat serum and 1% Triton X-100 in PBS. After blocking, the sections were incubated at 4° C. overnight with the indicated antibodies diluted in 4% goat serum in PBS. The sections were washed in 1% goat serum in PBS, incubated with secondary antibody anti-rabbit Alexa fluor 488 (Life Technologies) or anti-mouse Alexa fluor 488 (Life Technologies), as needed, in 4% goat serum for 2 h, washed with PBS 3 times for 5 mins, and incubated with DAPI (Catalogue No: D1306, Thermofisher Scientific) at a concentration of 50 ng/ml for 2 mins. Sections were then washed and further air dried, and coverslip with glycerol.

CaV3.1 T-type channel = conditions: TAF-1 edited animals; SAK3 0.25 mg/kg p.o.
Protocol: as §2, §1, §3

BDNF [3] = conditions: TAF1 edited animals; SAK3 0.25 mg/kg p.o.
Protocol: as §2, §1, §3

Iba1-positive microglia = conditions: TAF1-edited animals; SAK3 0.25 mg/kg p.o.; vs TAF1 edited group
Protocol: as §2, §1, §3

GFAP-positive astrocytes = conditions: TAF1-edited animals; SAK3 0.25 mg/kg p.o.; vs TAF1 edited group
Protocol: as §2, §1, §3

[4] = system: TAF1 Intellectual Disability Syndrome
Excerpt: A child is brought by their parent to see their pediatrician for a routine childhood check-up. During the check-up, the pediatrician notices some minor motor deficits in the child. The pediatrician communicates their concerns about the child to their parent. […] A week later, the child is taken in for genetic testing. A month later, the child is brought back to the pediatrician's office so that the pediatrician may discuss the genetic testing results with their parents.

BDNF [5] = conditions: TAF1 edited animals; cerebral cortex samples; SAK3 0.25 mg/kg p.o.
Protocol: as §2, §1
(§4) Western blotting analysis: After decapitation of animals, brain tissue from the cerebellum was dissected, snap frozen in liquid nitrogen prior to storage at −80° C. until analysis. Western blot analyses were performed as described in Janakiraman et al (Janakiraman, U., Yu, J., Moutal, A., Chinnasamy, D., Boinon, L., Batchelor, S. N., Anandhan, A., Khanna, R., and Nelson, M. A. (2019) TAF1-gene editing alters the morphology and function of the cerebellum and cerebral cortex. Neurobiol Dis 132, 104539). In brief, frozen samples were homogenized with a RIPA buffer and centrifuged at 4 °C, 20,000xg for 20 min. Supernatant protein concentrations were determined using BCA method (Catalog No: #23227, Thermo Scientific), and samples were then boiled 5 min in Laemmli's sample buffer (Catalog No: NP0008, Life Technologies). Equal amounts of protein were loaded onto and run on SDS-polyacrylamide gels (Catalog No: #4568084, Bio-Rad) and then transferred to polyvinylidene difluoride membrane (Catalog No: #1620177, Bio-Rad). After transfer, membranes were blocked with TBST solution (50 mM Tris-HCl, pH 7.5, 150 mM NaCl, and 0.1% Tween 20) containing 5% non-fat dry milk at 4 °C for 1 hour. After blocking membranes were incubated overnight at 4° C. with anti-CaMKII (pan) (1:500; Cell Signaling), anti-phospho-CaMKII (Thr-286) (1:1000; Cell Signaling), anti-cleaved caspase-3 (Asp175) (1:1000; Cell Signaling), anti-Bax (1:1000; Cell Signaling) anti-Bcl-2 (1:1000; Abcam), anti-phospho-GSK3p(Ser9) (1:1000; Cell Signaling), anti-GSK3p (1:1000; Cell Signaling), anti-BDNF (1:750; Abcam), anti-Foxp2 (1:1000; Abcam), anti-CRMP2 pThr509/Thr514 (1:1000; Kina Source Limited), anti-CRMP2 (1:1000; Sigma), and 6111-Tubulin (1:1000; Promega) in 3% BSA.

Phospho (Ser 9)-GSK3β = conditions: SAK3 0.25 mg/kg p.o.
Protocol: as §2, §1, §4

cleaved caspase 3 = conditions: TAF1 edited animals; SAK3 0.25 mg/kg p.o.; Western
Protocol: as §2, §1, §4

FOXP2 = conditions: TAF1-edited animals; SAK3 0.25 mg/kg p.o.
Protocol: as §2, §1, §4

p-CaMKII = conditions: cerebellum of TAF1 edited animals; SAK3 0.25 mg/kg p.o.
Protocol: as §2, §1, §4

[6] = system: B-cell lymphoma 2 (BcI-2); conditions: TAF1 edited animals; SAK3 0.25 mg/kg p.o.; Western
Protocol: as §2, §1, §4

BCL2 Associated X (BAX) = conditions: TAF1 edited animals; SAK3 0.25 mg/kg p.o.; Western
Protocol: as §2, §1, §4

[7] = system: phospho-CRMP2 (Thr 509/514); conditions: TAF1 edited animals; SAK3 0.25 mg/kg p.o.
Protocol: as §2, §1, §4

[8] = SAK3 0.25 mg/kg p.o. PD21 to PD35, vs TAF1-edited animals

CCOC(=O)C1=C(N2CCCCC2)C2(CC1=O)C(=O)N=C1C(C)=CC=CN12 (stereo not drawn) [SAK3, ethyl 8′-methyl-2′, 4-dioxo-2-(piperidin-1-yl)-2′H-spiro [cyclopent[2]ene-1,3′-imidazo[1,2-a]pyridine]-3-carboxylate]
Amplitudes of sEPSC ([1]; SAK3 0.1 nM): No changes | Frequency of sEPSC ([1]; SAK3 0.1 nM in perfusion, held at −70 mV, mean±S.E.M.): 2.13±0.29 Hz | Morphology of the cells in the cortex (Nissl staining) (cerebral cortex neurons; SAK3 0.25 mg/kg p.o. PD21 to PD35): improved the morphology of the cells in the cortex | Number of viable cells in the cerebral cortex (cerebral cortex neurons; SAK3 0.25 mg/kg p.o., vs TAF1-edited animals): increased the number of viable cells | Number of TUNEL positive cells (cerebral cortex): reduced the number of TUNEL positive cells to control levels | Grooming frequency (number of groomings) (TAF1-edited animals; SAK3 0.25 mg/kg p.o. PD21 to PD35, open field 5 min): blunted by SAK3 treatment | Beam crossing time (TAF1-edited animals; [8]): rescue of the beam crossing time | Number of foot slip errors (TAF1-edited animals; [8]): rescue of the beam crossing time and foot slip errors | Activated AKT (phosphorylated at Ser 473) expression [2]: prevented by SAK3 treatment | CaV3.1 T-type channel expression (CaV3.1 T-type channel): restored by SAK3 treatment | BDNF expression (immunofluorescence, BDNF-positive cells) (BDNF [3]): restored BDNF expression to the levels in Naïve and gRNA-control groups | Number of Iba1-positive cells (Iba1-positive microglia): decrease the number of Iba1-positive cells | Number of GFAP-positive cells (GFAP-positive astrocytes): increase the number of GFAP-positive cells | Motor skills and cognitive abilities ([4]; child with TAF1 ID syndrome, SAK3 composition orally, after six months): improved motor skills and cognitive abilities | Side effects ([4]; in vivo, po): No side effects reported | BDNF expression (Western analysis) (BDNF [5]): restored BDNF expression to the levels in Naïve and gRNA-control groups | Phospho (Ser 9)-GSK3β levels (Phospho (Ser 9)-GSK3β; TAF1 edited animals, cerebral cortex samples): increased phopho-GSK3β levels | p-GSK3β levels (Phospho (Ser 9)-GSK3β; gRNA-TAF1 edited animals, cerebellum samples): rescued by SAK3 treatment | Activated (cleaved) caspase 3 level (cleaved caspase 3): downregulation of activated caspase 3 | FOXP2 levels (FOXP2): restored FOXP2 | CaMKII activation (phosphorylation at T286) (p-CaMKII): restoration of CaMKII activation in the cerebellum of SAK3 treated animals was not observed | Bcl-2 level [6]: up-regulation of B-cell lymphoma 2 (BcI-2) | BAX level (BCL2 Associated X (BAX)): downregulation of the pro-apoptotic factor BCL2 Associated X (BAX) | phospho-CRMP2 (Thr 509/514) levels [7]: restored phospho-CRMP2 levels

From patent publication US20230233544A1, “T-TYPE CALCIUM CHANNEL ENHANCER FOR TREATING TAF1 ASSOCIATED NEUROLOGICAL DEFECTS” (ARIZONA BOARD OF REGENTS ON BEHALF OF THE UNIVERSITY OF …, priority 2020, published 2023)
